Source: publication PMC12683216, “Using High‐Throughput Screening to Identify Crosslinking Peptides That Control Cell‐Mediated Matrix Degradation” (Advanced Healthcare Materials, 2025)
Like-named read-outs stand apart in the source and are kept apart here. Where a SMILES comes first, the peptide text is derived from it. [ ]: non-standard residue; d: D form. βAla = NCCC(=O)O

Legend:
[1] = Soluble peptide degradation, Media condition (cell-conditioned media, LC-MS); format: in vitro ADME, human
In short: (§1)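 Pooled peptide library added to medium conditioned by hUVECs or hMSCs with cells removed. Fraction remaining after 24 h measured by LC-MS (positive-ion ESI). Value is peptide peak area relative to 50 µM non-degradable βFβA6 internal standard.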

[2] = as above; format: in vitro ADME, human; settings: for remaining at 24 h, 50 µM / remaining at 24 h: human
In short: as §1

[3] = Figure 3C, individually synthesized soluble peptide, 50 µM, hMSC-conditioned media without cells, 24 h, LC-MS, ratio to βFβA6, N = 6
[4] = human, hMSC-conditioned media without cells (Media condition), Figure 3B heatmap, split-and-pool libraries KLVADX1X2ASAE in hMSC-conditioned media without cells, 24 h, LC-MS, ratio to βFβA6, N = 2, read-out: Fraction of peptide remaining after 24 hours: hMSC Media
[5] = human, Figure 2B heatmap, pooled TAILS-derived soluble peptides in 24 h hMSC-conditioned media without cells, 24 h, LC-MS, ratio to βFβA6 internal standard, 24 h / 0 h, N = 5, read-out: Fraction of peptide remaining at 24 hours: hMSC Media
[6] = Figure 2B heatmap, pooled TAILS-derived soluble peptides in 24 h hUVEC-conditioned media without cells, 24 h, LC-MS, ratio to βFβA6 internal standard, 24 h / 0 h, N = 5, read-out: Fraction of peptide remaining at 24 hours: hUVEC Media
[7] = Figure 3C, individually synthesized soluble peptide, 50 µM, hUVEC-conditioned media without cells, 24 h, LC-MS, ratio to βFβA6, N = 6
[8] = Figure 3C, 50 µM soluble peptide, 24 h, LC-MS, N = 6

CSCC[C@H](NC(=O)[C@H](CC(C)C)NC(=O)[C@H](CC(=O)O)NC(=O)[C@H](C)NC(=O)[C@@H](NC(=O)[C@H](CC(C)C)NC(=O)[C@H](CCCCN)NC(=O)CCNC(C)=O)C(C)C)C(=O)N[C@@H](C)C(=O)N[C@@H](CO)C(=O)N[C@@H](C)C(=O)N[C@@H](CCC(=O)O)C(=O)NCCC(N)=O [KLVAD-LM] (Ac-[βAla]KLVADLMASAE[βAla]-NH2)
degraded across all Media conditions [1]: less than 10% | remaining at 24 h, 50 µM ([1]; human, cells or culture medium): 97% | degraded across all Media conditions [2]: less than 10% | remaining at 24 h, 50 µM ([2]; cells or culture medium): 93%

CC(=O)NCCC(=O)N[C@@H](CCCCN)C(=O)N[C@@H](CC(C)C)C(=O)N[C@H](C(=O)N[C@@H](C)C(=O)N[C@@H](CC(=O)O)C(=O)N[C@@H](CC(N)=O)C(=O)N[C@@H](Cc1ccc(O)cc1)C(=O)N[C@@H](C)C(=O)N[C@@H](CO)C(=O)N[C@@H](C)C(=O)N[C@@H](CCC(=O)O)C(=O)NCCC(N)=O)C(C)C [KLVAD-NY] (Ac-[βAla]KLVADNYASAE[βAla]-NH2)
Fraction of peptide remaining after 24 hours: hMSC Media [1, 3]: 0.92 | remaining at 24 h [1, 4]: 84% | remaining at 24 h [1, 5]: 97% | metabolised at 24 h ([1]; human, Figure 2B screen, hMSC-conditioned media, 24 h, LC-MS): < 3% | degradation in Media condition ([2]; Figure 2B screen, hUVEC-conditioned media, 24 h, LC-MS): less than 3% | Fraction of peptide remaining after 24 hours: hUVEC Media ([2]; Figure 3B heatmap, split-and-pool libraries KLVADX1X2ASAE in hUVEC-conditioned media without cells, 24 h, LC-MS, ratio to βFβA6, N = 2): 0.98 | remaining at 24 h, 50 µM ([2]; hUVEC-conditioned media without cells (Media condition), Figure 3C, individually synthesized soluble peptide, 50 µM, hUVEC-conditioned media without cells, 24 h, LC-MS, ratio to βFβA6, N = 6, read-out: Fraction of peptide remaining after 24 hours: hUVEC Media): 102% | remaining at 24 h [2, 6]: 100%

CC(=O)NCCC(=O)N[C@@H](CCCCN)C(=O)N[C@@H](CC(C)C)C(=O)N[C@H](C(=O)N[C@@H](C)C(=O)N[C@@H](CC(=O)O)C(=O)N1CCC[C@H]1C(=O)N[C@@H](Cc1ccc(O)cc1)C(=O)N[C@@H](C)C(=O)N[C@@H](CO)C(=O)N[C@@H](C)C(=O)N[C@@H](CCC(=O)O)C(=O)NCCC(N)=O)C(C)C [KLVAD-PY] (Ac-[βAla]KLVADPYASAE[βAla]-NH2)
remaining at 24 h [1, 4]: 81% | remaining at 24 h, 50 µM ([1]; human, hMSC-conditioned media without cells (Media condition), Figure 3C, individually synthesized soluble peptide, 50 µM, hMSC-conditioned media without cells, 24 h, LC-MS, ratio to βFβA6, N = 6, read-out: Fraction of peptide remaining after 24 hours: hMSC Media): 96% | Fraction of peptide remaining after 24 hours: hUVEC Media [2, 7]: 1.11 | remaining at 24 h ([2]; hUVEC-conditioned media without cells (Media condition), Figure 3B heatmap, split-and-pool libraries KLVADX1X2ASAE in hUVEC-conditioned media without cells, 24 h, LC-MS, ratio to βFβA6, N = 2, read-out: Fraction of peptide remaining after 24 hours: hUVEC Media): 118%

CC[C@H](C)[C@H](NC(=O)CNC(=O)[C@H](CCC(N)=O)NC(=O)[C@@H]1CCCN1C(=O)CNC(=O)CCNC(C)=O)C(=O)N[C@@H](Cc1c[nH]c2ccccc12)C(=O)NCC(=O)N[C@@H](CCC(N)=O)C(=O)NCCC(N)=O [PanMMP, reference compound] (Ac-[βAla]GPQGIWGQ[βAla]-NH2)
peptide remaining, Media condition, hMSCs [1, 8]: 85% | Fraction of peptide remaining after 24 hours: hMSC Media [1, 3]: 0.85 | remaining at 24 h, 50 µM ([1]; human, hMSC-conditioned media without cells, no exogenous MMP-14, Figure 7 study, 24 h, LC-MS, N = 3 with technical triplicates, read-out: peptide remaining in hMSC conditioned media without exogenous MMP-14): 85% | remaining at 24 h [1, 5]: 86% | peptide remaining, Media condition, hUVECs [2, 8]: 89% | Fraction of peptide remaining after 24 hours: hUVEC Media [2, 7]: 0.89 | remaining at 24 h, 50 µM ([2]; hUVEC-conditioned media without cells, no exogenous MMP-14, Figure 7 study, 24 h, LC-MS, N = 3 with technical triplicates, read-out: peptide remaining in hUVEC conditioned media without exogenous MMP-14): 78% | remaining at 24 h [2, 6]: 93%
